Assay results from patent US11311522B1 (Cavion, Inc., priority 2018, dated 2022).

Test system: patients with essential tremor
Experiment: T-CALM: adverse events, discontinuations, ECG
Type: in vivo, human
Protocol: T-CALM employed the following dose titration scheme: Week 1 at 4 mg BID (8 mg/day), Week 2 at 8 mg BID (16 mg/day) and Weeks 3 & 4 at 10 mg BID (20 mg/day). […] Adverse Events were coded using MedDRA V20.0. Only treatment emergent adverse events with an onset date and time after the initiation of study drug until 30 days after discontinuation of drug were reported. For subjects who experience the same coded event more than once, a single event was presented. Adverse events were attributed to a study week based on the onset date, i.e. events that started on or after Visit 1 and prior to Visit 2 were classified as Study Week 1.
Electrocardiogram results were calculated as the average of the triplicate records at each time point. Baseline was defined as the mean of the triplicate values obtained pre-dose at Day 1. If this value was not available, the mean of the triplicate records obtained at screening were used.
Adverse events are characterized by maximum severity, drug-related adverse events, serious adverse events and adverse events leading to discontinuation of study.
Safety procedures involved collection of all TEAEs (treatment-emergent adverse events) coded into the Medical Dictionary for Regulatory Activities (MedDRA) version 20. Adverse events were classified by maximum severity, drug-related adverse events, serious adverse events, and adverse events leading to patient discontinuation.

CC(C)c1ccc(CC(=O)N[C@H](C)c2ccc(OCC(F)(F)F)cn2)cc1 [CX-8998]
Discontinuation due to Nervous System Disorders, subjects n (%) (N = 48): 4 (8%) | Discontinuation due to Psychiatric Disorders, subjects n (%) (N = 48): 4 (8%) | Dosage reduced Due to adverse event, subjects n (%) (N = 48): 3 (6%) | Dosage reduced during study, subjects n (%) (N = 48): 4 (8%) | Subjects with at least 1 event leading to discontinuation, n (%) (N = 48): 8 (17%) | Dosage reduced Due to other reasons, subjects n (%) (N = 48, subject had inadequate drug supply at Visit 4): 1 (2%)^3 | TEAE Abnormal dreams, subjects n (%) (Safety Analysis Set, n = 48): 2 (4%) | TEAE Disturbance in attention, subjects n (%) (Safety Analysis Set, n = 48): 2 (4%) | TEAE Dizziness, subjects n (%) (Safety Analysis Set, n = 48): 10 (21%) | TEAE Dry mouth, subjects n (%) (Safety Analysis Set, n = 48): 2 (4%) | TEAE Dysgeusia, subjects n (%) (Safety Analysis Set, n = 48): 2 (4%) | TEAE Ear and Labyrinth Disorders (system organ class), subjects n (%) (Safety Analysis Set, n = 48): 2 (4%) | TEAE Euphoric mood, subjects n (%) (Safety Analysis Set, n = 48): 3 (6%) | TEAE Gastrointestinal Disorders (system organ class), subjects n (%) (Safety Analysis Set, n = 48): 9 (19%) | TEAE Hallucination, subjects n (%) (Safety Analysis Set, n = 48): 2 (4%) | TEAE Headache, subjects n (%) (Safety Analysis Set, n = 48): 4 (8%) | TEAE Hypesthesia, subjects n (%) (Safety Analysis Set, n = 48): 0 | TEAE Infections and Infestations (system organ class), subjects n (%) (Safety Analysis Set, n = 48): 4 (8%) | TEAE Insomnia, subjects n (%) (Safety Analysis Set, n = 48): 3 (6%) | TEAE Nausea, subjects n (%) (Safety Analysis Set, n = 48): 1 (2%) | TEAE Nervous System Disorders (system organ class), subjects n (%) (Safety Analysis Set, n = 48): 20 (42%) | TEAE Paraesthesia, subjects n (%) (Safety Analysis Set, n = 48): 2 (4%) | TEAE Somnolence, subjects n (%) (Safety Analysis Set, n = 48): 1 (2%) | TEAE Tinnitus, subjects n (%) (Safety Analysis Set, n = 48): 2 (4%) | TEAE Urinary Tract Infection, subjects n (%) (Safety Analysis Set, n = 48): 2 (4%) | TEAE Vomiting, subjects n (%) (Safety Analysis Set, n = 48): 0 | Subjects with at least 1 treatment-emergent adverse event, n (%) (Safety Analysis Set, n = 48, titrated up to 10 mg BID, 4 weeks): 28 (58%) | Adverse Event (MedDRA Preferred Term) leading to dosage reduction (Subject 26-001, Study Day 25, from 10 mg BID to 8 mg BID, Completed study): Anxiety | Adverse Event (MedDRA Preferred Term) leading to dosage reduction (Subject 31-023, Study Day 8, from 8 mg BID to 4 mg BID, Withdrawn (Day 8), term wraps over r24-r26: Electrocardiogram T-wave abnormal): Electrocardio- | Adverse Event (MedDRA Preferred Term) leading to dosage reduction (Subject 33-004, Study Day 8, from 4 mg BID to 2 mg BID, Withdrawn (Day 45) Lost to follow-up): Headache | Abnormal dreams (TEAE, n = 48): 2 (4%) n (%) | Disturbance in attention (TEAE, n = 48): 2 (4%) n (%) | Dizziness (TEAE, n = 48): 10 (21%) n (%) | Dry mouth (TEAE, n = 48): 2 (4%) n (%) | Dysgeusia (TEAE, n = 48): 2 (4%) n (%) | Ear and Labyrinth Disorders (TEAE, n = 48): 2 (4%) n (%) | Euphoric mood (TEAE, n = 48): 3 (6%) n (%) | Gastrointestinal Disorders (TEAE, n = 48): 9 (19%) n (%) | Hallucination (TEAE, n = 48): 2 (4%) n (%) | Headache (TEAE, n = 48): 4 (8%) n (%) | Hypesthesia (TEAE, n = 48): 0 n (%) | Infections and Infestations (TEAE, n = 48): 4 (8%) n (%) | Insomnia (TEAE, n = 48): 3 (6%) n (%) | Nausea (TEAE, n = 48): 1 (2%) n (%) | Nervous System Disorders (TEAE, n = 48): 20 (42%) n (%) | Paraesthesia (TEAE, n = 48): 2 (4%) n (%) | Somnolence (TEAE, n = 48): 1 (2%) n (%) | Tinnitus (TEAE, n = 48): 2 (4%) n (%) | Urinary Tract Infection (TEAE, n = 48): 2 (4%) n (%) | Vomiting (TEAE, n = 48): 0 n (%) | Discontinuation due to adverse events (in vivo): 8 (17%) n (%) | Dosage reduction due to TEAEs (in vivo): 6% | Electrocardiogram outlier analysis (in vivo): no CVS safety signals
